For one assay, the system named is Plasmodium falciparum. Briefly: Antimalarial activity against Plasmodium falciparum assessed as SYBR Green uptake after 48 hrs. The class given is functional, organism-based.
Another assay relates to Staphylococcus aureus. Briefly: Antibacterial activity against methicillin resistant Staphylococcus aureus ATCC 33591. The class given is functional, organism-based.
Another assay has as its system Enterococcus faecium. The assay is described as follows: Antibacterial activity against vancomycin resistant Enterococcus faecium ATCC 700221. The format is functional, organism-based.
In assay [1] the test system is Mycobacterium tuberculosis. Briefly: Antitubercular activity against Mycobacterium tuberculosis […] ATCC 27294 after 4 days by microplate alamar blue assay. The class given is functional. The following applies: 96 h.
Another assay concerns Candida albicans. Briefly: Antifungal activity against amphotericin resistant Candida albicans ATCC 90873 after 12 to 15 hrs by Alamar Blue assay. The format is functional, organism-based.

Values after ≈ are worked out from the molar mass of the structure shown.

For three compounds, IC50 and MIC results are on record in ChEMBL document CHEMBL1154967, “Bioactive bromophycolides R-U from the Fijian red alga Callophycus serratus” (J Nat Prod, 2010).

Consider `C=C(C)[C@@H]1CC[C@]2(C)O[C@H]2CC[C@@]2(C)[C@H](Cc3cc(ccc3O)C(=O)O1)C(=C)CC[C@@H]2Br` [BROMOPHYCOLIDE R], for which the IC50 in the assay on Plasmodium falciparum was 1700 nM; in the assay on Staphylococcus aureus, more than 15000 nM; in the assay with Enterococcus faecium it was more than 15000 nM; in the assay with Candida albicans, more than 15000 nM. The compound also had an MIC in assay [1] of more than 50 µM.
Consider `C=C1CC[C@H](Br)[C@@]2(C)CC[C@@H]3O[C@@]3(C)CC[C@@H](C(C)(C)Br)OC(=O)c3ccc(O)c(c3)C[C@H]12` [BROMOPHYCOLIDE S], for which the IC50 in the assay with Plasmodium falciparum is 900 nM; in the assay on Staphylococcus aureus, more than 15000 nM; in the assay on Enterococcus faecium, 3800 nM; in the assay on Candida albicans, more than 15000 nM. In assay [1], this compound returned an MIC of 23 µM (≈ 13.4 µg/mL).
`CC1=CC[C@H](Br)[C@@]2(C)CC[C@@H](Br)[C@@]3(C)CC[C@H](OC(=O)c4ccc(O)c(c4)C[C@H]12)C(C)(C)O3` [BROMOPHYCOLIDE U]: the IC50 in the assay with Plasmodium falciparum was 2100 nM; in the assay with Staphylococcus aureus, 900 nM; in the assay with Enterococcus faecium it was 900 nM; in the assay on Candida albicans, more than 15000 nM. Also, the MIC in assay [1] worked out at 22 µM (≈ 12.9 µg/mL).
